These results are taken from ChEMBL document CHEMBL5291721, “A preclinical secondary pharmacology resource illuminates target-adverse drug reaction associations of marketed drugs” (Nat Commun, 2023).

Targets include Mu-type opioid receptor (Homo sapiens, UniProt P35372); Histamine H3 receptor (Homo sapiens, UniProt Q9Y5N1); D(1A) dopamine receptor (Homo sapiens, UniProt P21728).
The target of another assay is T1, Progesterone receptor (Homo sapiens, UniProt P06401).
T1 sequence (P06401 whole entry): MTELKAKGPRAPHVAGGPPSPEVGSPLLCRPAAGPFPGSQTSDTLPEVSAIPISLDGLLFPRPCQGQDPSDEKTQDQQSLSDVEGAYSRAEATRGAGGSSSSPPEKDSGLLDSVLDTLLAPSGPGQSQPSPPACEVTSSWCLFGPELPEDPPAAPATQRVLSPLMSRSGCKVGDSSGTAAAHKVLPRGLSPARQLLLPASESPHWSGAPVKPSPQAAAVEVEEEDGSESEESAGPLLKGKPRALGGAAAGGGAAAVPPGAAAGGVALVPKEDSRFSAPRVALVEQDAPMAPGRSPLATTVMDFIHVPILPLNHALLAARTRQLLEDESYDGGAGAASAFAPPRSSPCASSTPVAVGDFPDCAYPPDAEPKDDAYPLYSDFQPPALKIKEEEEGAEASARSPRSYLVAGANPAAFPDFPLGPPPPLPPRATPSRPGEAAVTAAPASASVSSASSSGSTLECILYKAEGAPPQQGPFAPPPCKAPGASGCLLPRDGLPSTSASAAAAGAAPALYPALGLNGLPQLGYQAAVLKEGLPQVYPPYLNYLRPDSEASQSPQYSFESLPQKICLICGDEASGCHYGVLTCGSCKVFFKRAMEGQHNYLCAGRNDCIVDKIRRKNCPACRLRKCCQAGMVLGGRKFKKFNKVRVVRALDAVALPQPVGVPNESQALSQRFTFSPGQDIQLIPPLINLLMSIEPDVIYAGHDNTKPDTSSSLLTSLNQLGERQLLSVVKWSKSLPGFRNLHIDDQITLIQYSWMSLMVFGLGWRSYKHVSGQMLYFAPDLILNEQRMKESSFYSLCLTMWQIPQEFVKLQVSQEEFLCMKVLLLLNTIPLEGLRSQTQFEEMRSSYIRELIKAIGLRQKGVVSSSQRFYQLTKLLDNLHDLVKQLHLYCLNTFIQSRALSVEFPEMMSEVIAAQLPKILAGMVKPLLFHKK

The target in assay [1] is Sodium-dependent serotonin transporter (Homo sapiens, UniProt P31645).
Assay [2] concerns the target T2, Alpha-1A adrenergic receptor (Homo sapiens, UniProt P35348).
T2 sequence (P35348 whole entry): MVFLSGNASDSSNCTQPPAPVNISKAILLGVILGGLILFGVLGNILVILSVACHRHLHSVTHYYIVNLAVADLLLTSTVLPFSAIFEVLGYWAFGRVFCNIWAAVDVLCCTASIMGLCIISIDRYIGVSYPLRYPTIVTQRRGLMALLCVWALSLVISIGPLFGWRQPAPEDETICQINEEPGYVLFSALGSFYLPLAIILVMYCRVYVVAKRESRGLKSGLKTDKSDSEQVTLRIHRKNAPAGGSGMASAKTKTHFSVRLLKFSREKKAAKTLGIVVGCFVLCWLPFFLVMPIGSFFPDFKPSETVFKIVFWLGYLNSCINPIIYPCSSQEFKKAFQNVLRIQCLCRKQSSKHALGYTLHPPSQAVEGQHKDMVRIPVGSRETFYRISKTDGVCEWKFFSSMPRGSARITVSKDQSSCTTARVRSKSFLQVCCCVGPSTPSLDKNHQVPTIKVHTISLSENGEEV
The assay is classed as functional, cell-based.

In assay [3] the target is T3, Amine oxidase [flavin-containing] A (Homo sapiens, UniProt P21397).
T3 sequence (P21397 whole entry): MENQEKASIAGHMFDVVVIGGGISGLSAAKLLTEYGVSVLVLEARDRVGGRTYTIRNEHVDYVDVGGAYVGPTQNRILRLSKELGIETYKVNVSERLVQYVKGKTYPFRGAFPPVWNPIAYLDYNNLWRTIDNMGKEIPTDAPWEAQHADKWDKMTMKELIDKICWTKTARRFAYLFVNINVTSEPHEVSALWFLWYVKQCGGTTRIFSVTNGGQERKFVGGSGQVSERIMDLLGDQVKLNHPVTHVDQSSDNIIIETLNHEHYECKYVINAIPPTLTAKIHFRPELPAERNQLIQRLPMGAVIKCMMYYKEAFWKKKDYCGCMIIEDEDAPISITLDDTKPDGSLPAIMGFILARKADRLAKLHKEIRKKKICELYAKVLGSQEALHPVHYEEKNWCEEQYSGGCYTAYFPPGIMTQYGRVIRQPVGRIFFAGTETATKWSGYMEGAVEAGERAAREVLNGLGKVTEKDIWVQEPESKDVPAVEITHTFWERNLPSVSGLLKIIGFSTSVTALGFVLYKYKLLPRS
Format: functional.

The target of assay [4] is cGMP-inhibited 3',5'-cyclic phosphodiesterase 3A (Homo sapiens, UniProt Q14432). Format: functional.
The target in assay [5] is 5-hydroxytryptamine receptor 2B (Homo sapiens, UniProt P41595). Format: functional, cell-based.
For assay [6], the target named is T4, Prostaglandin G/H synthase 1 (Homo sapiens, UniProt P23219). Format: functional.
The next assay addresses T5, Adenosine receptor A3 (Homo sapiens, UniProt P0DMS8).
T5 sequence (P0DMS8 whole entry): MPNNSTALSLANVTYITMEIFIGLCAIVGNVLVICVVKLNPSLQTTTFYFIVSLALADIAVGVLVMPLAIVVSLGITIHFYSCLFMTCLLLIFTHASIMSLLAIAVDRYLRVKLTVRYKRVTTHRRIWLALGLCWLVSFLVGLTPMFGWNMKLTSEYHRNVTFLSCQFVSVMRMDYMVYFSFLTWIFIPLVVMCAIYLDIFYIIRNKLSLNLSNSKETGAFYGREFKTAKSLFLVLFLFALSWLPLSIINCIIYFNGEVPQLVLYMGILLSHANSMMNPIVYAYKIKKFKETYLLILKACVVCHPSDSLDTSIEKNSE

Assay [7] deals with Vascular endothelial growth factor receptor 2 (Homo sapiens, UniProt P35968). Format: functional.
The target of assay [8] is T4, Prostaglandin G/H synthase 1. The assay is classed as functional. The source holds these as a separate data set.
The target in a further assay is Acetylcholinesterase (Homo sapiens, UniProt P22303). Format: functional.
Assay [9] addresses Sodium-dependent noradrenaline transporter (Homo sapiens, UniProt P23975).
Note: assay procedure not described here.

Acetylcholinesterase, sequence (P22303 whole entry): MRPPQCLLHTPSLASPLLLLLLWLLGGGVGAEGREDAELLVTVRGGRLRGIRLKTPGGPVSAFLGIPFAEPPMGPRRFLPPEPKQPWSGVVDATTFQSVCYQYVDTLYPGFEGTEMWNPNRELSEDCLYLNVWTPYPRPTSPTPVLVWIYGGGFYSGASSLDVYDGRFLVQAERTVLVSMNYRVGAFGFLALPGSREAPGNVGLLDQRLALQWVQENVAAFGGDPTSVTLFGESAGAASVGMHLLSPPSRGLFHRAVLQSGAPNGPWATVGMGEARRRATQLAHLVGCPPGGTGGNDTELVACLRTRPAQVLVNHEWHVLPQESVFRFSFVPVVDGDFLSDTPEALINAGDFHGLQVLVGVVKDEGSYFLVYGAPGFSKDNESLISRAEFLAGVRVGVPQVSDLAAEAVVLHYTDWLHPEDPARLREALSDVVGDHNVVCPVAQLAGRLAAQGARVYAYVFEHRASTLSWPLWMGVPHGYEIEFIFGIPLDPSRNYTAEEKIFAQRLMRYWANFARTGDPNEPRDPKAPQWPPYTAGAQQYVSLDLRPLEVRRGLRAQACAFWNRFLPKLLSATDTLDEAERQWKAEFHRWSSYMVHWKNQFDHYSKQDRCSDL
Mu-type opioid receptor, sequence (P35372 whole entry): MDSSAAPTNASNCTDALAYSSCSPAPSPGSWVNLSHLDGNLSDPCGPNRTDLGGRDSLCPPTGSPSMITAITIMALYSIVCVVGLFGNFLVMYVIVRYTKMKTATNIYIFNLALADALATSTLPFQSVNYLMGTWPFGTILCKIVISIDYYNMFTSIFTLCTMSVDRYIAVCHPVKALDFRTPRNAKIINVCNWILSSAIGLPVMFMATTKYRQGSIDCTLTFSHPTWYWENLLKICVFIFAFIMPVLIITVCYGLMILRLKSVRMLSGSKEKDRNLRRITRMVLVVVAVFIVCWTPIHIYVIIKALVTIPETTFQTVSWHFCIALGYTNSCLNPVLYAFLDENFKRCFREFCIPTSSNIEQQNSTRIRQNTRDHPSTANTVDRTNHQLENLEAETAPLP
Histamine H3 receptor, sequence (Q9Y5N1 whole entry): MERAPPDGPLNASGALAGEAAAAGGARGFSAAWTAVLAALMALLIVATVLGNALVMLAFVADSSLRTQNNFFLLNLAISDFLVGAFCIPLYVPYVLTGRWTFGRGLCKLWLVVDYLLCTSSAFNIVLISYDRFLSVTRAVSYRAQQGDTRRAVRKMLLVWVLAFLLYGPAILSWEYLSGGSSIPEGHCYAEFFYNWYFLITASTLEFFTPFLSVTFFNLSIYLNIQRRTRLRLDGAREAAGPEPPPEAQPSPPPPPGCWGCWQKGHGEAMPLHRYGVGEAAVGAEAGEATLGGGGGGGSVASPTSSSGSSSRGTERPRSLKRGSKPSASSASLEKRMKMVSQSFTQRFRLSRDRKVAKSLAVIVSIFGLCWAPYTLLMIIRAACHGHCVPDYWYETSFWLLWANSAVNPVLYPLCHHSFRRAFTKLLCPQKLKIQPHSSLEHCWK
cGMP-inhibited 3',5'-cyclic phosphodiesterase 3A, sequence (Q14432 whole entry): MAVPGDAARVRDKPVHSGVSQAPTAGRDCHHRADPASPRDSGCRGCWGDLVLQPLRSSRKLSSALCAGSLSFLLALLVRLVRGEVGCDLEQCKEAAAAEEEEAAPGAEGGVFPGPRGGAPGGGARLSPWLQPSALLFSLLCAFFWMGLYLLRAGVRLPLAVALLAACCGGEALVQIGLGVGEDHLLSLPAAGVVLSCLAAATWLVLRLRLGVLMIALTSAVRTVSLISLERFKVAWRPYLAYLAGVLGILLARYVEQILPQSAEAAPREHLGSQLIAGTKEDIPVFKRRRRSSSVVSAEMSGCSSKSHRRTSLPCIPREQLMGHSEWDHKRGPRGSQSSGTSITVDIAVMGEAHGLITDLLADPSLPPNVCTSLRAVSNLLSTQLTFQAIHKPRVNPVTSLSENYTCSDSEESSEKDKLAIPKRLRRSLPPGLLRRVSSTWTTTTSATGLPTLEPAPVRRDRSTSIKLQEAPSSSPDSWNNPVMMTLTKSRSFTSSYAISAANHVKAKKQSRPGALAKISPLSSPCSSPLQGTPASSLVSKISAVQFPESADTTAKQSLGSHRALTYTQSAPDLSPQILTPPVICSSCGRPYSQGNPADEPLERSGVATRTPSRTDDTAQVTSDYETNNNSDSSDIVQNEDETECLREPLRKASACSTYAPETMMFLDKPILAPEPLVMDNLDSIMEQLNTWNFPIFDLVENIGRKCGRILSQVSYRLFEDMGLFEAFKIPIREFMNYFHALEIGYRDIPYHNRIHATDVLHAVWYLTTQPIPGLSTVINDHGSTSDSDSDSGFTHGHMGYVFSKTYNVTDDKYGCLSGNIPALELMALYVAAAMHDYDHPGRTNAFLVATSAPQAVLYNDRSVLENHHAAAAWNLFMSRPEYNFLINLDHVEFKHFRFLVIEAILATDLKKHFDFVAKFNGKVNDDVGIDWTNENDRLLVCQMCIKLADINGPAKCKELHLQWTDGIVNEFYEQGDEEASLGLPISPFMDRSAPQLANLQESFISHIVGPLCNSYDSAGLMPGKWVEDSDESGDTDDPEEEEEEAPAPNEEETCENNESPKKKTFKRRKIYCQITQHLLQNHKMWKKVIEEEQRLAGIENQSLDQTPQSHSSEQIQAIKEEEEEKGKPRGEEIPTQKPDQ
D(1A) dopamine receptor, sequence (P21728 whole entry): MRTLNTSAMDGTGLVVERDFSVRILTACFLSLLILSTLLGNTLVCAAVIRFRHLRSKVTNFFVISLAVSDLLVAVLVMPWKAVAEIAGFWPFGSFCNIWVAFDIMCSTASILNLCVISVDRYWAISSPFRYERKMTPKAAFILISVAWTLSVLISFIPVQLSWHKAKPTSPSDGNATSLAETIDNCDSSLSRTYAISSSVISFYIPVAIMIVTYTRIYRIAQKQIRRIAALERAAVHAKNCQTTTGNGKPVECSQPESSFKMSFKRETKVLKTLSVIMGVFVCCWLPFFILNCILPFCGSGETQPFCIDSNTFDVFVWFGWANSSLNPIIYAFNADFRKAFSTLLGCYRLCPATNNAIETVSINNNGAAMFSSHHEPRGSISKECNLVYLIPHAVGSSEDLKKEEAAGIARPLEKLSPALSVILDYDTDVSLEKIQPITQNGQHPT
Vascular endothelial growth factor receptor 2, sequence (P35968 whole entry): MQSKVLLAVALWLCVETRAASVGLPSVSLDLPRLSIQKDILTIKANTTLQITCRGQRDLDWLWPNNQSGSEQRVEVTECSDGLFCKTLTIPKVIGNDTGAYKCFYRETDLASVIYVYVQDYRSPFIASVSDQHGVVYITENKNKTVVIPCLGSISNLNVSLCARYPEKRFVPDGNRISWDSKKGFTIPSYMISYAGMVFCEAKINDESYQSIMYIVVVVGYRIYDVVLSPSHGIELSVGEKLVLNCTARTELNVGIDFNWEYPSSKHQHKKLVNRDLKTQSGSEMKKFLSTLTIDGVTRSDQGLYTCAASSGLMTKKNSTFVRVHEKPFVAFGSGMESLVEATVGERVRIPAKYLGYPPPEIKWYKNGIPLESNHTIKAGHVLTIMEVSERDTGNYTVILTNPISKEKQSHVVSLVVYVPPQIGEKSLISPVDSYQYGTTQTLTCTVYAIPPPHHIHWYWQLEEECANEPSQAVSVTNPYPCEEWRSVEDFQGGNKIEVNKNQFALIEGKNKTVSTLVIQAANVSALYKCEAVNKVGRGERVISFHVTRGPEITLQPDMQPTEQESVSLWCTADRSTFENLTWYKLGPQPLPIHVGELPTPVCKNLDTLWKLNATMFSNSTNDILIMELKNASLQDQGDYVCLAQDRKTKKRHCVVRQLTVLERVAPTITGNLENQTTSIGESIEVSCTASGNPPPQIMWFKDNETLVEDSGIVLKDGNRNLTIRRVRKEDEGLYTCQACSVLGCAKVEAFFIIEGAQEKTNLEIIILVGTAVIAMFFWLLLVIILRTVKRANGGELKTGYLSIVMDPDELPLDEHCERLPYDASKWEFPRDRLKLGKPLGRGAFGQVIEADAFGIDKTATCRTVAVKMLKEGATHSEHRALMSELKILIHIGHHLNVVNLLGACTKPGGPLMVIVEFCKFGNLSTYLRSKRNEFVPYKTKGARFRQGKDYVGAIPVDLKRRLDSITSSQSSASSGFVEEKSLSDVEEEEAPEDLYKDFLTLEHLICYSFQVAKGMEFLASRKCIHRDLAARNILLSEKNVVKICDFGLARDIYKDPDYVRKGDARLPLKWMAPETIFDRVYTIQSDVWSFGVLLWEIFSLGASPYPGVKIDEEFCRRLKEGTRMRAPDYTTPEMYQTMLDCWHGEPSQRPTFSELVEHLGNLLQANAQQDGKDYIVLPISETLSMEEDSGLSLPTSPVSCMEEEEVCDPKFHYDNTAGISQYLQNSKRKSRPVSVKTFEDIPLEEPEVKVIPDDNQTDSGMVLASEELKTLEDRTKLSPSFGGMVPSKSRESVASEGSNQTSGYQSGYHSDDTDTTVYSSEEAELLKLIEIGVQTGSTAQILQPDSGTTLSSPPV
Sodium-dependent noradrenaline transporter, sequence (P23975 whole entry): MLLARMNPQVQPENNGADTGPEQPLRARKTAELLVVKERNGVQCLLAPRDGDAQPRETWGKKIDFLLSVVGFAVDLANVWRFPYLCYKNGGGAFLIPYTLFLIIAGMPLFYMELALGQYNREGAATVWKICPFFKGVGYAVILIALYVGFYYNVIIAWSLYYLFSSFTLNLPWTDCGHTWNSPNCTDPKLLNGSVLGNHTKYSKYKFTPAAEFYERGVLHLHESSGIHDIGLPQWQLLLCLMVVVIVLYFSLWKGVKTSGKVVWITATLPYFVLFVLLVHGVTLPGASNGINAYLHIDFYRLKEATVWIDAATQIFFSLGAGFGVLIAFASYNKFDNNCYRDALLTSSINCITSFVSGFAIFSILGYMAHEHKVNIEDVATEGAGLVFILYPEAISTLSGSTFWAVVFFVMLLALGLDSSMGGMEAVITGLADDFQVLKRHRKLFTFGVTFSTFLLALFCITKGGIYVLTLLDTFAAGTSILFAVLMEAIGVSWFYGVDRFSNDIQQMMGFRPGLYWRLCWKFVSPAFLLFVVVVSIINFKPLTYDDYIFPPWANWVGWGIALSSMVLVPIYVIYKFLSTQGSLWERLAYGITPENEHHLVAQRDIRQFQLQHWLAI

In the case of `CC(C)COC(=O)OCN1C(=O)CN(CCN2CC(=O)N(COC(=O)OCC(C)C)C(=O)C2)CC1=O` [SOBUZOXANE], the AC50 (at Mu-type opioid receptor; at Progesterone receptor; in [1]; in assay [2]; in assay [3]; in [4]) was greater than 30 µM each time. Besides, the AC50 in assay [5] was greater than 30 µM; in assay [6] it was 29.8 µM; on Adenosine receptor A3, greater than 30 µM; on Histamine H3 receptor, greater than 30 µM; in [7], greater than 30 µM; on D(1A) dopamine receptor, greater than 30 µM. Moreover, the AC50 (in [8]; at Acetylcholinesterase; in [9]) was greater than 30 µM each time.

As for `Cc1cc(NS(=O)(=O)c2ccc(N)cc2)nc(C)n1` [SULFISOMIDINE], the concentration at half-maximal activity (AC50) (at Mu-type opioid receptor; on Progesterone receptor; in assay [1]; in [2]; in assay [3]; in assay [4]) was greater than 30 µM in each case. Also, the AC50 (in assay [5]; in [6]; at Adenosine receptor A3; at Histamine H3 receptor; in [7]; on D(1A) dopamine receptor) was greater than 30 µM each time. The AC50 (in assay [8]; at Acetylcholinesterase; in [9]) was greater than 30 µM each time.

As for `OB1OCc2cc(F)ccc21` [TAVABOROLE], the AC50 at Mu-type opioid receptor was greater than 30 µM; at Progesterone receptor, greater than 30 µM; in [1] it was greater than 30 µM; in assay [2] it was greater than 30 µM; in assay [3], greater than 30 µM; in assay [4], 14.1 µM. Also, the AC50 (in assay [5]; in assay [6]; at Adenosine receptor A3; on Histamine H3 receptor; in assay [7]; on D(1A) dopamine receptor) was greater than 30 µM throughout. The AC50 (in [8]; on Acetylcholinesterase; in [9]) was greater than 30 µM throughout.

With `CC(C)(C)NCC(O)COc1cccc2c1SCCC2` (stereo not given) [TERTATOLOL], the AC50 on Mu-type opioid receptor was greater than 30 µM; at Progesterone receptor, greater than 30 µM; in assay [1], 17.3 µM; in assay [2], greater than 30 µM; in assay [3], greater than 30 µM; in assay [4], greater than 30 µM. Also, the AC50 (in assay [5]; in assay [6]; at Adenosine receptor A3; on Histamine H3 receptor; in assay [7]; on D(1A) dopamine receptor) was greater than 30 µM in each case. The AC50 is greater than 30 µM in [8], greater than 30 µM at Acetylcholinesterase and 29.6 µM in [9].

For the compound `Nc1ccc(S(=O)(=O)c2cnc(N)s2)cc1` [THIAZOLSULFONE], the AC50 (at Mu-type opioid receptor; at Progesterone receptor; in assay [1]; in assay [2]; in [3]; in [4]) was greater than 30 µM throughout. Also, the AC50 in [5] is greater than 30 µM; in [6] it was greater than 30 µM; on Adenosine receptor A3 it was 13.8 µM; on Histamine H3 receptor, greater than 30 µM; in assay [7], greater than 30 µM; at D(1A) dopamine receptor it was greater than 30 µM. For the same compound, the AC50 (in assay [8]; on Acetylcholinesterase; in [9]) was greater than 30 µM each time.

For `CC(CNC(=O)c1ccccc1)C(=O)OCC(=O)[C@@]12OC(C)(C)O[C@@H]1C[C@H]1[C@@H]3CCC4=CC(=O)C=C[C@]4(C)[C@@]3(F)[C@@H](O)C[C@@]12C` (stereo not given in full) [TRIAMCINOLONE BENETONIDE], the AC50 (at Mu-type opioid receptor; at Progesterone receptor; in assay [1]; in assay [2]; in assay [3]; in [4]) was greater than 30 µM in each case. Besides, the AC50 (in assay [5]; in [6]; on Adenosine receptor A3; at Histamine H3 receptor; in assay [7]; at D(1A) dopamine receptor) was greater than 30 µM in each case. Also, the AC50 (in assay [8]; at Acetylcholinesterase; in [9]) was greater than 30 µM in each case.

Usually AC50 stands for the midpoint of the concentration-response curve, whichever way the signal moves. Low readings indicate activity at low concentration, high ones activity only at high concentration.
